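These data come from cells grown in 96-well plates and exposed to compound for 48 hours at five concentrations. The concentration for 50% growth inhibition is given as GI50. TGI: total growth inhibition.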
Tests used:
Test in all cases: growth of human tumour cells (NCI), 48 h
M14 melanoma = system: M14 melanoma
RXF 393 renal = system: RXF 393 renal
HCT-116 colon = system: HCT-116 colon
RPMI-8226 leukemia = system: RPMI-8226 leukemia
KM12 colon = system: KM12 colon
DMS 273 small cell lung = system: DMS 273 small cell lung
SK-OV-3 ovarian = system: SK-OV-3 ovarian
OVCAR-8 ovarian = system: OVCAR-8 ovarian
SF-295 CNS = system: SF-295 CNS
SK-MEL-28 melanoma = system: SK-MEL-28 melanoma
NCI-H23 lung = system: NCI-H23 lung
HCC-2998 colon = system: HCC-2998 colon
SNB-19 CNS = system: SNB-19 CNS
OVCAR-5 ovarian = system: OVCAR-5 ovarian
UACC-62 melanoma = system: UACC-62 melanoma
HL-60(TB) leukemia = system: HL-60(TB) leukemia
786-0 renal = system: 786-0 renal
U251 CNS = system: U251 CNS
SNB-75 CNS = system: SNB-75 CNS
HT29 colon = system: HT29 colon
SF-268 CNS = system: SF-268 CNS
NCI-H460 lung = system: NCI-H460 lung
A549 NSCLC = system: A549 NSCLC
NCI-H226 lung = system: NCI-H226 lung
OVCAR-3 ovarian = system: OVCAR-3 ovarian
A498 renal = system: A498 renal
DLD-1 colon = system: DLD-1 colon
ACHN renal = system: ACHN renal
HCT-15 colon = system: HCT-15 colon
EKVX NSCLC = system: EKVX NSCLC
COLO 205 colon = system: COLO 205 colon
M19-MEL melanoma = system: M19-MEL melanoma
CAKI-1 renal = system: CAKI-1 renal
UO-31 renal = system: UO-31 renal
DMS 114 small cell lung = system: DMS 114 small cell lung
OVCAR-4 ovarian = system: OVCAR-4 ovarian
HOP-18 NSCLC = system: HOP-18 NSCLC
IGROV1 ovarian = system: IGROV1 ovarian
HOP-62 NSCLC = system: HOP-62 NSCLC
SK-MEL-2 melanoma = system: SK-MEL-2 melanoma
SW-620 colon = system: SW-620 colon
KM20L2 colon = system: KM20L2 colon
MALME-3M melanoma = system: MALME-3M melanoma
SF-539 CNS = system: SF-539 CNS
UACC-257 melanoma = system: UACC-257 melanoma
HOP-92 NSCLC = system: HOP-92 NSCLC
LXFL 529 NSCLC = system: LXFL 529 NSCLC
SNB-78 CNS = system: SNB-78 CNS
SN12C renal = system: SN12C renal

**Q.** With CCC[CH2][Sn]1([CH2]CCC)[O]CC(COc2c(Cl)cc(Cl)cc2Cl)[O]1 (configuration not stated) as the molecule, how does the GI50 (M14 melanoma) read?
**A.** 1720 nM

**Q.** And the TGI (M14 melanoma)?
**A.** 3130 nM

**Q.** And the GI50 (RXF 393 renal)?
**A.** 1270 nM

**Q.** And the TGI (RXF 393 renal)?
**A.** 2730 nM

**Q.** And the GI50 (HCT-116 colon)?
**A.** 1670 nM

**Q.** And the TGI (HCT-116 colon)?
**A.** 3030 nM

**Q.** What about the GI50 (RPMI-8226 leukemia) of the same molecule?
**A.** 780 nM

**Q.** And the TGI (RPMI-8226 leukemia)?
**A.** 3720 nM

**Q.** What about the GI50 (KM12 colon) of the same molecule?
**A.** 1800 nM

**Q.** What about the TGI (KM12 colon) of the same molecule?
**A.** 3540 nM

**Q.** What about the GI50 (DMS 273 small cell lung) of the same molecule?
**A.** 1780 nM

**Q.** What about the TGI (DMS 273 small cell lung) of the same molecule?
**A.** 3440 nM

**Q.** What about the GI50 (SK-OV-3 ovarian) of the same molecule?
**A.** 4180 nM

**Q.** And the TGI (SK-OV-3 ovarian)?
**A.** 12300 nM

**Q.** What about the GI50 (OVCAR-8 ovarian) of the same molecule?
**A.** 1120 nM

**Q.** And the TGI (OVCAR-8 ovarian)?
**A.** 2370 nM

**Q.** What about the GI50 (SF-295 CNS) of the same molecule?
**A.** 1900 nM

**Q.** And the TGI (SF-295 CNS)?
**A.** 3370 nM

**Q.** And the GI50 (SK-MEL-28 melanoma)?
**A.** 1390 nM

**Q.** And the TGI (SK-MEL-28 melanoma)?
**A.** 2820 nM

**Q.** What about the GI50 (NCI-H23 lung) of the same molecule?
**A.** 1110 nM

**Q.** And the TGI (NCI-H23 lung)?
**A.** 2690 nM

**Q.** And the GI50 (HCC-2998 colon)?
**A.** 1510 nM

**Q.** What about the TGI (HCC-2998 colon) of the same molecule?
**A.** 2950 nM

**Q.** And the GI50 (SNB-19 CNS)?
**A.** 1350 nM

**Q.** And the TGI (SNB-19 CNS)?
**A.** 2640 nM

**Q.** What about the GI50 (OVCAR-5 ovarian) of the same molecule?
**A.** 2020 nM

**Q.** What about the TGI (OVCAR-5 ovarian) of the same molecule?
**A.** 3460 nM

**Q.** What about the GI50 (UACC-62 melanoma) of the same molecule?
**A.** 1480 nM

**Q.** And the TGI (UACC-62 melanoma)?
**A.** 2860 nM

**Q.** And the TGI (HL-60(TB) leukemia)?
**A.** 673 nM

**Q.** And the GI50 (786-0 renal)?
**A.** 1410 nM

**Q.** And the TGI (786-0 renal)?
**A.** 2740 nM

**Q.** What about the GI50 (U251 CNS) of the same molecule?
**A.** 845 nM

**Q.** And the TGI (U251 CNS)?
**A.** 2180 nM

**Q.** And the GI50 (SNB-75 CNS)?
**A.** 1170 nM

**Q.** What about the TGI (SNB-75 CNS) of the same molecule?
**A.** 3770 nM

**Q.** What about the GI50 (HT29 colon) of the same molecule?
**A.** 2090 nM

**Q.** And the TGI (HT29 colon)?
**A.** 4190 nM

**Q.** And the GI50 (SF-268 CNS)?
**A.** 1150 nM

**Q.** What about the TGI (SF-268 CNS) of the same molecule?
**A.** 2680 nM

**Q.** And the GI50 (NCI-H460 lung)?
**A.** 2670 nM

**Q.** What about the TGI (NCI-H460 lung) of the same molecule?
**A.** 7980 nM

**Q.** What about the GI50 (A549 NSCLC) of the same molecule?
**A.** 5150 nM

**Q.** And the TGI (A549 NSCLC)?
**A.** 17700 nM

**Q.** What about the GI50 (NCI-H226 lung) of the same molecule?
**A.** 1820 nM

**Q.** What about the TGI (NCI-H226 lung) of the same molecule?
**A.** 3820 nM

**Q.** And the GI50 (OVCAR-3 ovarian)?
**A.** 1650 nM

**Q.** What about the TGI (OVCAR-3 ovarian) of the same molecule?
**A.** 3030 nM

**Q.** What about the GI50 (A498 renal) of the same molecule?
**A.** 1310 nM

**Q.** And the TGI (A498 renal)?
**A.** 2650 nM

**Q.** What about the GI50 (DLD-1 colon) of the same molecule?
**A.** 1490 nM

**Q.** And the TGI (DLD-1 colon)?
**A.** 2950 nM

**Q.** And the GI50 (ACHN renal)?
**A.** 1770 nM

**Q.** And the TGI (ACHN renal)?
**A.** 3170 nM

**Q.** What about the GI50 (HCT-15 colon) of the same molecule?
**A.** 1660 nM

**Q.** And the TGI (HCT-15 colon)?
**A.** 3310 nM

**Q.** And the GI50 (EKVX NSCLC)?
**A.** 5510 nM

**Q.** And the TGI (EKVX NSCLC)?
**A.** 17300 nM

**Q.** And the GI50 (COLO 205 colon)?
**A.** 1390 nM

**Q.** And the TGI (COLO 205 colon)?
**A.** 2750 nM

**Q.** And the GI50 (M19-MEL melanoma)?
**A.** 941 nM

**Q.** What about the TGI (M19-MEL melanoma) of the same molecule?
**A.** 2220 nM

**Q.** And the GI50 (CAKI-1 renal)?
**A.** 511 nM

**Q.** And the TGI (CAKI-1 renal)?
**A.** 1650 nM

**Q.** What about the GI50 (UO-31 renal) of the same molecule?
**A.** 1680 nM

**Q.** What about the TGI (UO-31 renal) of the same molecule?
**A.** 3210 nM

**Q.** And the GI50 (DMS 114 small cell lung)?
**A.** 403 nM

**Q.** And the TGI (DMS 114 small cell lung)?
**A.** 1580 nM

**Q.** And the GI50 (OVCAR-4 ovarian)?
**A.** 1910 nM

**Q.** And the TGI (OVCAR-4 ovarian)?
**A.** 3760 nM

**Q.** What about the GI50 (HOP-18 NSCLC) of the same molecule?
**A.** 1410 nM

**Q.** What about the TGI (HOP-18 NSCLC) of the same molecule?
**A.** 2710 nM

**Q.** What about the GI50 (IGROV1 ovarian) of the same molecule?
**A.** 1800 nM

**Q.** And the TGI (IGROV1 ovarian)?
**A.** 3460 nM

**Q.** And the GI50 (HOP-62 NSCLC)?
**A.** 2630 nM

**Q.** And the TGI (HOP-62 NSCLC)?
**A.** 7970 nM

**Q.** And the GI50 (SK-MEL-2 melanoma)?
**A.** 580 nM

**Q.** And the TGI (SK-MEL-2 melanoma)?
**A.** 1910 nM

**Q.** And the GI50 (SW-620 colon)?
**A.** 1130 nM

**Q.** And the TGI (SW-620 colon)?
**A.** 2620 nM

**Q.** And the GI50 (KM20L2 colon)?
**A.** 2980 nM

**Q.** What about the TGI (KM20L2 colon) of the same molecule?
**A.** 10700 nM

**Q.** And the GI50 (MALME-3M melanoma)?
**A.** 1060 nM

**Q.** And the TGI (MALME-3M melanoma)?
**A.** 2340 nM

**Q.** What about the GI50 (SF-539 CNS) of the same molecule?
**A.** 1640 nM

**Q.** What about the TGI (SF-539 CNS) of the same molecule?
**A.** 3430 nM

**Q.** And the GI50 (UACC-257 melanoma)?
**A.** 1110 nM

**Q.** And the TGI (UACC-257 melanoma)?
**A.** 2330 nM

**Q.** What about the GI50 (HOP-92 NSCLC) of the same molecule?
**A.** 1550 nM

**Q.** And the TGI (HOP-92 NSCLC)?
**A.** 3060 nM

**Q.** And the GI50 (LXFL 529 NSCLC)?
**A.** 375 nM

**Q.** And the TGI (LXFL 529 NSCLC)?
**A.** 1580 nM

**Q.** What about the GI50 (SNB-78 CNS) of the same molecule?
**A.** 962 nM

**Q.** What about the TGI (SNB-78 CNS) of the same molecule?
**A.** 3490 nM

**Q.** And the GI50 (SN12C renal)?
**A.** 1750 nM

**Q.** And the TGI (SN12C renal)?
**A.** 3270 nM

Reference: PubChem BioAssay (NCI)
